Experimental findings from ChEMBL document CHEMBL4507311, “Data for DCP probe A-1155463” (2021) are described below.

The residual activity is the signal under treatment as a percentage of the control signal. Broadly, the inhibition is the percentage by which the read-out fell short of the control.

For test [1], the target named is Interleukin-1 receptor-associated kinase 1 (Homo sapiens) (UniProt P51617). To be noted: Compound concentration 1000.0 nM.
For test [2], the target named is GABA-A receptor; anion channel (Rattus norvegicus) (UniProt O09028+P15431+P18506+P18508+P19969+P20236+P23574+P23576+P28471+P28473+P30191+P62813+P63079+P63138+Q91ZM7+Q9ES14). Conditions: Compound concentration 10.0 uM.

Sequence of Interleukin-1 receptor-associated kinase 1 (Homo sapiens) (P51617 whole entry, looked up): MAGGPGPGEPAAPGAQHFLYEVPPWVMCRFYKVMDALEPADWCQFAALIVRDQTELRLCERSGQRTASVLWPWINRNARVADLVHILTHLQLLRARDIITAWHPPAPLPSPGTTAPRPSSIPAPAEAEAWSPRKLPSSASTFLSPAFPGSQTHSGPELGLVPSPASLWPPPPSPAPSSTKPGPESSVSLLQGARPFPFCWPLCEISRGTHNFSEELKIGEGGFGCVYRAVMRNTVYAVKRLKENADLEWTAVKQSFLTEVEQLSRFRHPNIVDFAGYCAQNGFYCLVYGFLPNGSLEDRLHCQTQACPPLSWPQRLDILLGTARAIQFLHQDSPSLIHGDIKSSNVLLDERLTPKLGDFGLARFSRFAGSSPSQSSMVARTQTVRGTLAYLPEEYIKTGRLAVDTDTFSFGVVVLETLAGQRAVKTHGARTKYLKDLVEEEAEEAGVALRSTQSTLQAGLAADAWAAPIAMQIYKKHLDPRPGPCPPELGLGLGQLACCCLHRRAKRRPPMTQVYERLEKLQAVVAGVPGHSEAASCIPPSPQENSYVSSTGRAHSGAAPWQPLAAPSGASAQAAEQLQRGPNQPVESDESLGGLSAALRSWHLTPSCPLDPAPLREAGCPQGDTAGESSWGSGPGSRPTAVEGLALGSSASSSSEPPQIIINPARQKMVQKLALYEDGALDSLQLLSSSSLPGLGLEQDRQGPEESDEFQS

As for `CN(C)CC#Cc1ccc(OCCCc2sc(N3CCc4cccc(C(=O)Nc5nc6ccccc6s5)c4C3)nc2C(=O)O)c(F)c1` [A-1155463], the residual activity in test [1] was 100%. Moreover, the inhibition in test [2] is 36.8%.
